# Assay results from US20110044892A1, “FORMULATION AND METHOD FOR TREATMENT OF TEETH” (priority 2007, published 2011).
# Assay: pH of solution or formulation
# Format: physicochemical
# Details: solution as applied to dentin
# Text: If the solution applied to the dentin is too acidic, for example, lower than 5.5, it will demineralize and thereby undesirably weaken the dentin. If the solution applied to the dentin is too basic, for example, in excess of 7.5, it will undesirably form a lot of calculus. An ideal pH for the dentin treatment solution is considered to be about 6 to 7, preferably about 6.6 to 7. Such a pH is believed to be important not only to prevent de-mineralization but also to aid in re-mineralization of dentin surfaces. Therefore, in accordance with the present invention, the dentin treatment solution is formulated to have a pH of about 6 to 7, preferably about 6.6 to 7. […] The formulation with the addition of the insoluble oxide forms on the surface of the dentin or other tooth surface a protective coat that keeps the pH constant to maintain the tooth integrity and protect its surface from, for example, routinely used acidic beverages, protection of dental restorations, and microleakage protection (protection from bacterial leakage and leakage associated with restorative materials) as well as for re-mineralization. The insoluble oxide may include other insoluble substances providing a pH of about 6 to 7 in the dentin treatment solution and on the dentin surfaces, for example, amphoteric oxides such as aluminum oxide and zinc oxide. […]
row,SMILES,pH of solution
1,"O.O.O.O.O.O.O=[N+]([O-])[O-].O=[N+]([O-])[O-].O=[N+]([O-])[O-].[Gd+3] [gadolinium nitrate, gadolinium nitrate hexahydrate]",about 4.3
2,"O=C([O-])C(=O)[O-].[K+].[K+] [potassium oxalate, reference compound]",about 2

# Assay: Dentinal tubule plugging by lanthanide salt solutions on etched dentine discs (SEM, backscattered SEM, EDX)
# Design: species or system human
# Details: 4% to 5% by weight solution in water, 5 to 10 minutes on disc; SEM
# Text: We also assessed other lanthanide compounds, as hereinafter discussed.
# For each of the lanthanide salts, caries-free surgically-extracted human molar teeth were cleaned of organic material and, after removal of the crown, sectioned mesio-distally to provide one to two 1-mm dentine discs which were used in the experiment immediately. […] A solution containing a respective one of the above-mentioned lanthanide salts in a concentration of 4% to 5% by weight in the solvent was placed on or in contact with the discs respectively for 5 to 10 minutes before rinsing under flowing tap water. These treated discs were dried completely and then split using pliers, this helping to expose the tubular area for observation of depth of penetration. Specimens were then carbon-coated before examination under SEM (scanning electron microscope). The same procedure was used for each of the other lanthanide compounds hereinafter discussed.
# When observed in a backscattered electron beam, dense materials appear as high contrast (bright areas) material relative to the background material (tooth structure). Lanthanides in general have greater density compared to the hydroxyapatite present in the tooth. Thus, in a backscattered electron beam, the lanthanides appear as bright areas due to their high density compared to the background.
row,SMILES,depth of penetration within the tubules
1,"O.O.O.O.O.O.O.[Cl-].[Cl-].[Cl-].[La+3] [lanthanum chloride, lanthanum chloride heptahydrate]",up to 12 microns
2,"O.O.O.O.O.O.O=[N+]([O-])[O-].O=[N+]([O-])[O-].O=[N+]([O-])[O-].[Gd+3] [gadolinium nitrate, gadolinium nitrate hexahydrate]",up to 5 microns
3,"O=C([O-])C(=O)[O-].[K+].[K+] [potassium oxalate, reference compound]",3 to 4 microns

# Same assay, conditions: energy dispersive X-ray microanalysis of treated dentine
row,SMILES,presence of the lanthanide by EDX
1,"O.O.O.O.O.O.[Cl-].[Cl-].[Cl-].[Gd+3] [gadolinium chloride, gadolinium chloride hexahydrate]",confirmed
2,"O.O.O.O.O.O.O.[Cl-].[Cl-].[Cl-].[La+3] [lanthanum chloride, lanthanum chloride heptahydrate]",confirmed
3,"O.O.O.O.O.O.O=[N+]([O-])[O-].O=[N+]([O-])[O-].O=[N+]([O-])[O-].[Gd+3] [gadolinium nitrate, gadolinium nitrate hexahydrate]",confirmed
4,"O.O.O.O.O.O.[Cl][Sm]([Cl])[Cl] [samarium chloride, samarium chloride hexahydrate]",confirmed
5,"O.O.O.O.O.O.O.[Ce+3].[Cl-].[Cl-].[Cl-] [cerium chloride, cerium chloride heptahydrate]",confirmed

# Same assay, conditions: in water; SEM
row,SMILES,penetration of / deposits within the tubules (qualitative)
1,"O=[N+]([O-])[O-].[K+] [potassium nitrate, reference compound]",little or no deposits within the tubules
2,[La+3].[OH-].[OH-].[OH-] [lanthanum hydroxide],poor penetration of the tubules
3,O=C([O-])[O-].O=C([O-])[O-].O=C([O-])[O-].[La+3].[La+3] [lanthanum carbonate],poor penetration of the tubules

# Same assay, conditions: solution in water, 5 to 10 minutes on disc
SMILES,blockage or plugging of the tubules (SEM appearance),deposits on / coverage of the dentinal surface
"O.O.O.O.O.O.[Cl-].[Cl-].[Cl-].[Gd+3] [gadolinium chloride, gadolinium chloride hexahydrate]",substantially complete blockage or plugging of the tubules,cover substantially the dentinal surface
"O.O.O.O.O.O.O.[Cl-].[Cl-].[Cl-].[La+3] [lanthanum chloride, lanthanum chloride heptahydrate]",substantially complete blockage or plugging of the tubules,cover some of the surface
"O.O.O.O.O.O.O=[N+]([O-])[O-].O=[N+]([O-])[O-].O=[N+]([O-])[O-].[Gd+3] [gadolinium nitrate, gadolinium nitrate hexahydrate]",substantially complete blockage or plugging of the tubules,substantially covering the dentinal surface
"O=C([O-])C(=O)[O-].[K+].[K+] [potassium oxalate, reference compound]",formed crystals that appear to block the tubules,a substantial amount of potassium oxalate was deposited on the dentin surface
"O.O.O.O.O.O.[Cl][Sm]([Cl])[Cl] [samarium chloride, samarium chloride hexahydrate]",substantially complete blockage or plugging of the tubules,cover substantially the dentinal surface
"O=[N+]([O-])[O-].[K+] [potassium nitrate, reference compound]",,considerable deposits on the surface
[La+3].[OH-].[OH-].[OH-] [lanthanum hydroxide],no plugging observed,no dentin surface deposits were observed
"O.O.O.O.O.O.O.[Ce+3].[Cl-].[Cl-].[Cl-] [cerium chloride, cerium chloride heptahydrate]",substantially complete blockage or plugging of the tubules,cover substantially the dentinal surface
O=C([O-])[O-].O=C([O-])[O-].O=C([O-])[O-].[La+3].[La+3] [lanthanum carbonate],no plugging observed,no dentin surface deposits were observed

# Assay: not given
# Details: not given
# Text: For the purposes of this specification and the claims, the term “soluble” refers to a characteristic of a salt of dissolving in water (or other solvent in which the salt is placed) to the extent that there is substantially no precipitation or settling out of material.
row,SMILES,solubility in water
1,[La+3].[OH-].[OH-].[OH-] [lanthanum hydroxide],not being soluble in water
